Where a SMILES comes first, the peptide text is derived from it.
How the values were obtained:
Type in all cases: cell-based
N1E and R3 cells [1] = assay: Hydrogen peroxide induced apoptosis, LIVE/DEAD staining; conditions: H2O2 100 μM, 18 h, cells untreated with peptides; average ± SEM
Method: (§1) N1E and R3 ([33-10ras3] (ATCC® CRL-2764™)) cells were grown to about 80% of confluency in 6-well plates covered with D-poly-lysine. Peptides (500 nM or 10 µM) were added to the cells 1 h before treatments. The tested apoptogenic treatments were: Staurosporine (100 nM, 18 h), serum withdraw (20 days for N1E cells and 5 days for R3 cells), heat shock (43 °C, 1 h plus overnight recovery), Camptothecin (10 μM, 18 h), H2O2 (100 μM, 18 h). After the treatment the cells were carefully washed with PBS and stained simultaneously with Calcein A and Ethidium homodimer-1 (LIVE/DEAD® Viability/Cytotoxicity Kit, LifeTechnologies) for 30 min at room temperature. Cells were photographed in an inverted microscope immediately after staining. Percentage of survived cells was calculated from 3 randomly selected fields of view; average cell death rate ± SEM was calculated using GraphPad Prism (version 6.0 h for MacOS, GraphPad Software, La Jolla, USA). Antibodies specific to cleaved Caspase-3 (Asp175) (Rabbit monoclonal 5A1E, CST) were used to visualize Caspase-3 activation in N1E cells by Western blotting.

R3 cells = assay: Staurosporine-induced cell death, LIVE/DEAD staining; conditions: Staurosporine 100 nM, no peptide, average ± SEM
Method: as §1

N1E cells [2] = assay: as above; conditions: overnight exposure to 100 nM Staurosporine, no peptide, average ± SEM
Method: as §1

N1E cells [3] = assay: MALDI-TOF analysis of lysates from peptide-loaded cells; conditions: 500 nM peptide, 30 min at 37 °C, Triton X-100 lysate after trichloroacetic acid sedimentation, not quantitative
Method: About 10^6 cells (N1E cells) were exposed to 500 nM of DL18 peptide in normal culture media for 30 min at 37 °C. After exposure the cells were washed twice with PBS, lyzed with 1% Triton X-100 in distilled water and the proteins were sedimented with equal volume of 40% trichloroacetic acid. After centrifugation (9000g, 20 min) 20 μl of supernatant was applied on MALDI plate, mixed with solution of 2,5-dihydroxybenzoic acid and subjected for MALDI-TOF analysis.

N1E and R3 cells [4] = assay: Camptothecin-induced apoptosis, LIVE/DEAD staining; conditions: Camptothecin 10 μM, 18 h, no peptide
Method: as §1

Compound: OO [H2O2, hydrogen peroxide]
- dead cells (N1E and R3 cells [1]): 84.8 ± 4.28%

Compound: CN[C@@H]1C[C@H]2O[C@@](C)([C@@H]1OC)n1c3ccccc3c3c4c(c5c6ccccc6n2c5c31)C(=O)NC4 [Staurosporine]
- dead cells (R3 cells): 15.33 ± 3.76%
- cell death (N1E cells [2]): 89.67 ± 5.04%

Compound: CC[C@@H](C)[C@@H](NC(=O)[C@@H](CCC(=O)O)NC(=O)[C@H](NC(=O)[C@@H](CC(=O)O)NC(=O)[C@@H](CO)NC(=O)CNC(=O)[C@H](N)[C@H](C)O)[C@H](C)O)C(=O)NCC(=O)N[C@@H](CCCNC(=N)N)C(=O)N[C@@H](CCCCN)C(=O)N[C@@H](CCCCN)C(=O)N[C@@H](CCCNC(=N)N)C(=O)N[C@@H](CCCNC(=N)N)C(=O)N[C@@H](CCC(N)=O)C(=O)N[C@@H](CCCNC(=N)N)C(=O)N[C@@H](CCCNC(=N)N)C(=O)N[C@@H](CCCNC(=N)N)C(=O)NCC(=O)O [DL18] (HELM PEPTIDE1{[dT].G.[dS].[dD].[dT].[dE].[dI].G.R.K.K.R.R.Q.R.R.R.G}$$$$V2.0)
- dynamics of cellular catabolism of the peptide (prevalence of non-metabolized m/z 2158 peak) (N1E cells [3]): not considerable

Compound: CC[C@@]1(O)C(=O)OCc2c1cc1n(c2=O)Cc2cc3ccccc3nc2-1 [Camptothecin]
- apoptosis induction (N1E and R3 cells [4]): induces apoptosis in limited number of cells
